Test results taken from PubChem BioAssay AID330 (DTP/NCI, 2004).
Where “and” joins values, the source holds several entries; their conditions need not be identical. Identical values can stand only once. Inconclusive results and toxic doses are left out.

Tested on: P388 leukemia ip, CD2F1 mice, survival T/C
Experiment: NCI In Vivo Anticancer Drug Screen. Data for tumor model P388 Leukemia (intraperitoneal) in CD2F1 (CDF1) mice
Conditions: endpoint: median survival time, higher = longer survival
How it was run: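 Mice carrying the transplanted tumor received test compound or vehicle. Survival was recorded in each group, and the value is the treated-group measurement divided by that of the vehicle-treated control group.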

[1] = dose: 50.0 mg/kg/injection, schedule: Q01DX009 (ip), vehicle: saline with Tween-80
[2] = dose: 100.0 mg/kg/injection, schedule: Q01DX009 (ip), vehicle: saline with Tween-80
[3] = dose: 60.0 mg/kg/injection, schedule: Q01DX005 (ip), vehicle: saline with Tween-80
[4] = dose: 120.0 mg/kg/injection, schedule: Q01DX005 (ip), vehicle: saline with Tween-80
[5] = dose: 240.0 mg/kg/injection, schedule: Q01DX005 (ip), vehicle: saline with Tween-80

Cc1cnc2ncn(Cc3c[nH]c(=O)[nH]c3=O)c(=O)c2c1
T/C (dose: 12.5 mg/kg/injection, schedule: Q01DX001 (ip), vehicle: saline with Tween-80): 110 % of control | T/C (dose: 25.0 mg/kg/injection, schedule: Q01DX001 (ip), vehicle: saline with Tween-80): 107 % of control | T/C (dose: 50.0 mg/kg/injection, schedule: Q01DX001 (ip), vehicle: saline with Tween-80): 104 % of control | T/C (dose: 100.0 mg/kg/injection, schedule: Q01DX001 (ip), vehicle: saline with Tween-80): 104 % of control

CNNC(=O)OC
T/C (dose: 25.0 mg/kg/injection, schedule: Q01DX002 (ip), vehicle: saline): 101 % of control | T/C (dose: 50.0 mg/kg/injection, schedule: Q01DX002 (ip), vehicle: saline): 102 % of control | T/C (dose: 100.0 mg/kg/injection, schedule: Q01DX002 (ip), vehicle: saline): 120 % of control

CC12C=C3CC(OC(=O)c4ccccc4)CCC3(O1)c1ccccc12 (configuration not stated)
T/C (dose: 25.0 mg/kg/injection, schedule: Q01DX009 (ip), vehicle: saline with Tween-80): 99 % of control | T/C [1]: 105 % of control | T/C [2]: 95 % of control

COc1cc2c(cc1O)Cc1c-2[n+](C)cc2cc(OC)c(OC)cc12
T/C (dose: 6.25 mg/kg/injection, schedule: Q01DX005 (ip), vehicle: Klucel (hydroxypropylcellulose) (HPC)): 117 % of control | T/C (dose: 12.5 mg/kg/injection, schedule: Q01DX005 (ip), vehicle: Klucel (hydroxypropylcellulose) (HPC)): 109 % of control | T/C (dose: 25.0 mg/kg/injection, schedule: Q01DX005 (ip), vehicle: Klucel (hydroxypropylcellulose) (HPC)): 115 % of control | T/C (dose: 100.0 mg/kg/injection, schedule: Q04DX002 (ip), vehicle: Klucel (hydroxypropylcellulose) (HPC)): 119 % of control

CNC(=O)N(C)C(=O)c1ccncc1C(=O)N(C(=O)NC1CCCCC1)C1CCCCC1
T/C (dose: 50.0 mg/kg/injection, schedule: Q01DX005 (ip), vehicle: saline with Tween-80): 98 % of control | T/C (dose: 100.0 mg/kg/injection, schedule: Q01DX005 (ip), vehicle: saline with Tween-80): 89 % of control | T/C (dose: 200.0 mg/kg/injection, schedule: Q01DX005 (ip), vehicle: saline with Tween-80): 89 % of control

O=C(Nc1ccc(F)cc1)N1c2ccccc2SC12CCCC2
T/C [1]: 91 % of control | T/C [2]: 93 % of control | T/C (dose: 200.0 mg/kg/injection, schedule: Q01DX009 (ip), vehicle: saline with Tween-80): 93 % of control

C[CH2][Pb]([CH2]C)([CH2]C)[O]C(=O)c1ccccc1
T/C (dose: 0.75 mg/kg/injection, schedule: Q01DX009 (ip), vehicle: Klucel (hydroxypropylcellulose) (HPC)): 113 % of control | T/C (dose: 1.5 mg/kg/injection, schedule: Q01DX009 (ip), vehicle: Klucel (hydroxypropylcellulose) (HPC)): 115 % of control | T/C (dose: 3.0 mg/kg/injection, schedule: Q01DX009 (ip), vehicle: Klucel (hydroxypropylcellulose) (HPC)): 123 % of control | T/C (dose: 6.0 mg/kg/injection, schedule: Q01DX009 (ip), vehicle: Klucel (hydroxypropylcellulose) (HPC)): 123 % of control | T/C (dose: 12.0 mg/kg/injection, schedule: Q01DX009 (ip), vehicle: Klucel (hydroxypropylcellulose) (HPC)): 97 % of control

C[N+](C)([O-])Cc1ccccc1C[N+](C)(C)[O-]
T/C (dose: 60.0 mg/kg/injection, schedule: Q01DX005 (ip), vehicle: saline): 102 % of control | T/C (dose: 120.0 mg/kg/injection, schedule: Q01DX005 (ip), vehicle: saline): 110 % of control | T/C (dose: 240.0 mg/kg/injection, schedule: Q01DX005 (ip), vehicle: saline): 112 % of control

CCCCCCCCCCCCCCCCCCN(C)C
T/C (dose: 25.0 mg/kg/injection, schedule: Q01DX009 (ip), vehicle: Klucel (hydroxypropylcellulose) (HPC)): 100 % of control | T/C (dose: 50.0 mg/kg/injection, schedule: Q01DX009 (ip), vehicle: Klucel (hydroxypropylcellulose) (HPC)): 101 % of control

c1ccc2c(c1)Nc1ccc(CN3CCOCC3)cc1S2
T/C (dose: 60.0 mg/kg/injection, schedule: Q01DX005 (ip), vehicle: Klucel (hydroxypropylcellulose) (HPC)): 104 % of control | T/C (dose: 120.0 mg/kg/injection, schedule: Q01DX005 (ip), vehicle: Klucel (hydroxypropylcellulose) (HPC)): 97 % of control | T/C (dose: 240.0 mg/kg/injection, schedule: Q01DX005 (ip), vehicle: Klucel (hydroxypropylcellulose) (HPC)): 92 % of control

CCC[CH2][Sn]([CH2]CCC)([O]C=O)[O]C=O
T/C (dose: 0.39 mg/kg/injection, schedule: Q01DX009 (ip), vehicle: saline): 99 % of control and 108 % of control | T/C (dose: 0.79 mg/kg/injection, schedule: Q01DX009 (ip), vehicle: saline): 100 % of control and 92 % of control | T/C (dose: 1.56 mg/kg/injection, schedule: Q01DX009 (ip), vehicle: saline): 86 % of control and 94 % of control

NC(=O)c1ccc2nccn2c1
T/C (dose: 50.0 mg/kg/injection, schedule: Q04DX003 (ip), vehicle: saline): 101 % of control | T/C (dose: 100.0 mg/kg/injection, schedule: Q04DX003 (ip), vehicle: saline): 115 % of control | T/C (dose: 200.0 mg/kg/injection, schedule: Q04DX003 (ip), vehicle: saline): 119 % of control

CCN(CC)CN1C(=O)CC2(C1=O)c1ccccc1-c1ccccc12
T/C (dose: 100.0 mg/kg/injection, schedule: Q01DX001 (ip), vehicle: water): 109 % of control | T/C (dose: 200.0 mg/kg/injection, schedule: Q01DX001 (ip), vehicle: water): 106 % of control | T/C (dose: 400.0 mg/kg/injection, schedule: Q01DX001 (ip), vehicle: water): 110 % of control

CC1CC(=O)N1C(=O)CCN=C=S (configuration not stated)
T/C [3]: 111 % of control | T/C [4]: 120 % of control | T/C [5]: 117 % of control

O=NN(CCCl)C(=O)NCCO
T/C (dose: 0.78 mg/kg/injection, schedule: Q01DX005 (ip), vehicle: water): 96 % of control | T/C (dose: 3.12 mg/kg/injection, schedule: Q01DX005 (ip), vehicle: water): 104 % of control | T/C (dose: 3.13 mg/kg/injection, schedule: Q01DX005 (ip), vehicle: water): 250 % of control | T/C (dose: 12.5 mg/kg/injection, schedule: Q01DX005 (ip), vehicle: water): 116 % of control | T/C (dose: 25.0 mg/kg/injection, schedule: Q01DX005 (ip), vehicle: water): 150 % of control | T/C (dose: 50.0 mg/kg/injection, schedule: Q01DX005 (ip), vehicle: water): 218 % of control

COc1cccc2c1C(=O)C(C1CO1)=CC2=O (configuration not stated)
T/C (dose: 12.5 mg/kg/injection, schedule: Q01DX001 (ip), vehicle: Klucel (hydroxypropylcellulose) (HPC)): 88 % of control | T/C (dose: 25.0 mg/kg/injection, schedule: Q01DX001 (ip), vehicle: Klucel (hydroxypropylcellulose) (HPC)): 95 % of control

CC1(C)NC(=O)c2cccnc2S1
T/C [3]: 89 % of control | T/C [4]: 97 % of control | T/C [5]: 99 % of control

O=C(O)[C@@H]1[C@H](C(=O)O)[C@H](C(=O)O)C[C@@H]1C(=O)O
T/C (dose: 100.0 mg/kg/injection, schedule: Q01DX009 (ip), vehicle: saline): 108 % of control | T/C (dose: 200.0 mg/kg/injection, schedule: Q01DX009 (ip), vehicle: saline): 105 % of control

CCC(=O)N(C)[C@@H](C)C(=O)O[C@H]1CC(=O)N(C)c2cc(cc(OC)c2Cl)C/C(C)=C/C=C[C@@H](OC)[C@@]2(O)C[C@H](OC(=O)N2)[C@@H](C)[C@@H]2O[C@@]12C
T/C (dose: 0.1 micrograms/kg/injection, schedule: Q01DX009 (ip), vehicle: saline): 105 % of control | T/C (dose: 0.2 micrograms/kg/injection, schedule: Q01DX009 (ip), vehicle: saline): 123 % of control | T/C (dose: 3.1 micrograms/kg/injection, schedule: Q01DX009 (ip), vehicle: saline + alcohol): 160 % of control | T/C (dose: 3.1 micrograms/kg/injection, schedule: Q01DX009 (ip), vehicle: saline): 150 % of control | T/C (dose: 6.3 micrograms/kg/injection, schedule: Q01DX009 (ip), vehicle: saline + alcohol): 151 % of control | T/C (dose: 6.3 micrograms/kg/injection, schedule: Q01DX009 (ip), vehicle: saline): 161 % of control

COC(=O)c1cc(C)c(NC(C)=O)cc1C
T/C (dose: 12.5 mg/kg/injection, schedule: Q01DX009 (ip), vehicle: distilled water + Tween-80): 100 % of control | T/C (dose: 25.0 mg/kg/injection, schedule: Q01DX009 (ip), vehicle: distilled water + Tween-80): 98 % of control | T/C (dose: 50.0 mg/kg/injection, schedule: Q01DX009 (ip), vehicle: distilled water + Tween-80): 90 % of control | T/C (dose: 100.0 mg/kg/injection, schedule: Q01DX009 (ip), vehicle: distilled water + Tween-80): 98 % of control | T/C (dose: 200.0 mg/kg/injection, schedule: Q01DX009 (ip), vehicle: distilled water + Tween-80): 89 % of control

N=c1oc2ccccc2cc1C(=O)NNC(=O)c1ccncc1
T/C (dose: 100.0 mg/kg/injection, schedule: Q01DX001 (ip), vehicle: saline): 96 % of control | T/C (dose: 200.0 mg/kg/injection, schedule: Q01DX001 (ip), vehicle: saline): 96 % of control | T/C (dose: 400.0 mg/kg/injection, schedule: Q01DX001 (ip), vehicle: saline): 102 % of control
